These results are taken from patent EP4729529A1, “PREPARATION OF PEPTIDE INHIBITOR OF INTERLEUKIN-23 RECEPTOR AND USE THEREOF” (Xizang Haisco Pharmaceutical Co., Ltd., priority 2023, dated 2024).

Positions of bridges follow the written chain, without caps; N, C: chain ends. Non-standard residues stand in square brackets, D forms with d. Residues, ends and D or L forms follow the SMILES beside them. Phe(4-OC2H4NH2,2,3-(CH2)3) = NCCOc1ccc(C[C@H](N)C(=O)O)c2c1CCC2; Trp(7-cPr) = N[C@@H](Cc1c[nH]c2c(C3CC3)cccc12)C(=O)O; 2Nal = N[C@@H](Cc1ccc2ccccc2c1)C(=O)O; Thp(SO2) = NC1(C(=O)O)CCS(=O)(=O)CC1; 3Pal = N[C@@H](Cc1cccnc1)C(=O)O; Pen = CC(C)(S)[C@H](N)C(=O)O; Sar = CNCC(=O)O

In data set [1] the target is T1, IL-23R (Homo sapiens, UniProt Q5VWK5).
T1 construct: host or cells: HEK-blue IL23 reporter gene cell line
T1 sequence (Q5VWK5 24-629): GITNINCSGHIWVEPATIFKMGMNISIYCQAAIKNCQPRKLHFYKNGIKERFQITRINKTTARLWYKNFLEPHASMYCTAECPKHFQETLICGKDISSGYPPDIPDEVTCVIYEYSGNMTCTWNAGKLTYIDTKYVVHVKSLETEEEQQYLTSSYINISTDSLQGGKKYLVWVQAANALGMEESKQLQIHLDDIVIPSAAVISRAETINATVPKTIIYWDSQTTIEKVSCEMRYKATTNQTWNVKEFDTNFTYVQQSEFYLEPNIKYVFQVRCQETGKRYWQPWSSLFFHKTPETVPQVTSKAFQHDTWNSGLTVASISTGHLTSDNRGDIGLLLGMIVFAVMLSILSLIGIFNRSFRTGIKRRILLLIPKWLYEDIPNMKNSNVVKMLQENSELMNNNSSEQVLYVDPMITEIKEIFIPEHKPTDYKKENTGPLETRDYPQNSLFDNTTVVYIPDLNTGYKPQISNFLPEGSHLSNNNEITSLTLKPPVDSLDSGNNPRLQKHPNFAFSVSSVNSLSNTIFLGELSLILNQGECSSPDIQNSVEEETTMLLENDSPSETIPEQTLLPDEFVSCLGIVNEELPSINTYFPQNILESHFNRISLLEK
Description: IL-23R reporter gene assay (HEK-blue IL23 reporter gene cell line, rhIL23 stimulation). Type of data set: cell-based. Particulars: Inhibition of IL-23R, rhIL23 1 ng/mL, 24 hours. The protocol: 2. IL-23R reporter gene assay
The purpose of this assay was to assess the ability of compounds to inhibit the binding of IL23p19 to IL23R in a reporter gene system. The HEK-blue IL23 reporter gene cell line (Invivogen, hkb-il23) was cultured in DMEM + 10% FBS + 100 ug/mL Normocin medium. When the cell density reached 80%-90%, 5000 cells/well were plated into a 384-well plate, and the plate was incubated overnight at 37°C with 5% CO2. Then, the compound stock solution was diluted in DMSO, and 40 nL of the dilution was transferred into the 384-well culture plate by Echo. The plate was incubated at 37°C with 5% CO2 for 0.5 hours. 40 nL/well of rhIL23 (R&D, 1290-IL) was added to the 384-well cell culture plate at a final concentration of 1 ng/mL, and the plate was incubated at 37°C with 5% CO2 for 24 hours. 18 µL of Quanti-Blue™ solution was added to a new 384-well plate. 2 µL/well of cell culture supernatant was transferred into the 384-well plate prepared in Step 6, and the plate was incubated at 37°C with 5% CO2 for 1 hour. Absorbance values at […] were read on BMG. The binding ability of the compounds was assessed using the following formula, and IC50 values were obtained by fitting with Graphpad.
(§1) Calculation formula of inhibition rate: [formula] • where Data negative: mean of DMSO control group; and • Data positive: mean of non-IL23-stimulated group
The calculation formula of IC50 was as follows: Y = Bottom + (Top−Bottom)/(1+10^(∧)((LogIC50−X)*HillSlope)) [formula] • where X: concentration of compound; and • Y: inhibition rate of compound Table 2. Inhibition of IL-23R by test compounds
A general note: A reporter such as luciferase makes a cellular process visible.

The target of data set [2] is (Homo sapiens, UniProt Q5VWK5). Description: IL-23-stimulated pSTAT3 detection assay in PBMCs (ELISA). Type of data set: cell-based. Particulars: rhIL23 stimulation 30 minutes, read-out: pSTAT3 inhibition/IC50. The protocol: 3. IL-23-stimulated pSTAT3 detection assay in PBMCs
Sequence of (Homo sapiens, UniProt Q5VWK5) (Q9NPF7 20-189 partner, other chains not shown): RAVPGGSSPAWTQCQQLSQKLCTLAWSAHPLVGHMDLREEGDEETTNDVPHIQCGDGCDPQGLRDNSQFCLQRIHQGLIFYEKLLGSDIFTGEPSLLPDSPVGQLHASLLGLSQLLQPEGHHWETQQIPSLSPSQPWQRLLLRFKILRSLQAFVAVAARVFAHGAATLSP
Sequence of (Homo sapiens, UniProt Q5VWK5) (P29460 23-328 partner, other chains not shown): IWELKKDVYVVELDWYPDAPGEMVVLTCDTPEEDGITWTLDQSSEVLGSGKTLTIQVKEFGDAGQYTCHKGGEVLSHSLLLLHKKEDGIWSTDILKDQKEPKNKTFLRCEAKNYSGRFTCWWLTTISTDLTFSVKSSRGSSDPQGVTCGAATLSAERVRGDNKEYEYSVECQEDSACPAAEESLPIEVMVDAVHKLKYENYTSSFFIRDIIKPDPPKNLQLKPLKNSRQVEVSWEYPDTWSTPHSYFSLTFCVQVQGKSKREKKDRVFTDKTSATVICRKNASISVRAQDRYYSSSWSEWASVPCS
Cryopreserved human PBMCs were thawed, and seeded onto a plate previously covered with an anti-CD3 antibody at 1 × 10^6 cells/well. Then, an anti-CD28 antibody was added to the plate, and the cells were incubated at 37°C with 5% CO2 for 5 days. On Day 5, the cells were seeded onto a 96-well plate at a density of 100K cells/well after 4 hours of stimulation by FBS starvation. The diluted Compound was transferred into the 96-well cell culture plate, and the plate was incubated at 37°C with 5% CO2 for 1 hour. rhIL23 (R&D, 1290-IL) was added to the cell culture plate, and the plate was incubated at 37°C with 5% CO2 for 30 minutes. The cells in the wells were lysed on ice with a lysis buffer containing 1× PHOSstop solution for 30 minutes, and the plate was centrifuged at 1000 rpm for 1 minute. Then, the supernatant was transferred into a 96-well ELISA plate, and pSTAT3 ELISA assay was performed according to the instructions of the kit (CST, 7300CA). Absorbance values at […] were read on PHERAstar FSX (BMG LRBTECH). The inhibition rate of the compounds was assessed using the following formula, and IC50 values were obtained by fitting with Graphpad.
as §1
The calculation formula of IC50 was as follows: Y = Bottom + (Top−Bottom)/(1+10^(∧)((LogIC50−X)*HillSlope)) [formula] • where X: concentration of compound; and • Y: inhibition rate of compound. Table 3. pSTAT3 inhibition
In general terms: In an ELISA, binding on a coated surface is turned into a signal by an enzyme label.

Data set [3] deals with T2, IL-23α/IL-12β and IL-23R (Homo sapiens, UniProt Q5VWK5).
T2 construct: purchased ACRO ILR-H82F3 (IL-23R); ILB-H52W5 (IL-23α/IL-12β)
T2 sequence (Q5VWK5 24-353 limits assumed): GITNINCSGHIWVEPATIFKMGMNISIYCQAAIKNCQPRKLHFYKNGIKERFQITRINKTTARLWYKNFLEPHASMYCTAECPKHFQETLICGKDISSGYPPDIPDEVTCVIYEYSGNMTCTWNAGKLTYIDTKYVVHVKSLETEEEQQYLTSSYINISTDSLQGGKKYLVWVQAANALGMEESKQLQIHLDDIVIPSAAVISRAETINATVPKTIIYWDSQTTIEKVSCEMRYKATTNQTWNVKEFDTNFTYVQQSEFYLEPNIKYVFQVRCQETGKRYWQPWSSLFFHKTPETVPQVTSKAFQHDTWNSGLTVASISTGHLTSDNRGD
As to the kind of experiment: IL-23α/IL-12β and IL-23R binding assay (TR-FRET/HTRF). Particulars: inhibition of the binding of IL-23α/IL-12β to IL-23R, TR-FRET; both proteins 0.3 nM. An outline of the steps: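 TR-FRET with IL-23α/IL-12β and IL-23R each at 0.3 nM in PPI buffer; compound preincubated with IL-23α/IL-12β 60 min at 25°C, then IL-23R and Tb/d2 detection reagents added for 60 min. HTRF 665/620 ratio; IC50 by nonlinear regression.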
In general terms: In TR-FRET formats the signal depends on donor and acceptor labels being close together.

Data set [4] can be described thus: Pharmacokinetic test in mice (intravenous and intragastric, plasma LC-MS/MS). Particulars: male, mouse, Balb/c mice. The format is in vivo. On the procedure:
4. Pharmacokinetic test in mice
4.1. Experimental animals: Male Balb/c mice (20-25 g, 18 mice/compound) were purchased from Chengdu Dossy Experimental Animals Co., Ltd.
4.2. Experimental design: On the day of the experiment, the Balb/c mice were randomly grouped by body weight. The animals were fasted with water available for 12-14 h one day before the administration, and were fed 4 h after the administration. Table 4. Administration information
Before and after administration, 0.06 mL of blood was taken from the orbit under isoflurane anaesthesia, and placed in an EDTAK2 centrifuge tube. The tube was centrifuged at 5000 rpm at 4°C for 10 min, and plasma was collected. The blood collection time points for the intravenous group and intragastric group were both 0 min, 5 min, 15 min, 30 min, 1 h, 2 h, 4 h, 6 h, 8 h, and 24 h. Before analysis and detection, all samples were stored at -80°C, and the samples were quantitatively analysed by LC-MS/MS. Table 5. Pharmacokinetic parameters of test compounds in mouse plasma

A word on the AUC(0-t): it is exposure summed from dosing to a finite time, without extrapolation to infinity. As usually defined, the clearance is the rate of elimination divided by the concentration. As a reminder, the bioavailability is the share of a dose that reaches the circulation, judged against a reference dose that is usually intravenous.

Consider `CC(=O)N[C@@H]1C(=O)N[C@@H](Cc2c[nH]cn2)C(=O)N[C@@H]([C@@H](C)O)C(=O)N[C@@H](Cc2c[nH]c3c(C4CC4)cccc23)C(=O)N[C@@H](CCC(N)=O)C(=O)N[C@H](C(=O)N[C@@H](Cc2ccc(OCCN)c3c2CCC3)C(=O)N[C@@H](Cc2ccc3ccccc3c2)C(=O)NC2(C(=O)N[C@@H](CCC(=O)O)C(=O)N[C@@H](CC(N)=O)C(=O)N[C@@H](Cc3cccnc3)C(=O)N(C)CC(N)=O)CCS(=O)(=O)CC2)C(C)(C)SSC1(C)C` [Compound 16] (Ac-[Pen]HT[Trp(7-cPr)]Q[Pen][Phe(4-OC2H4NH2,2,3-(CH2)3)][2Nal][Thp(SO2)]EN[3Pal][Sar]-NH2; disulfide 1-6), for which the IC50 is 6.07 nM in data set [1], 0.0069 nM in data set [2] and 0.063 nM in data set [3]. For the same compound, the exposure AUC(0-t) in data set [4] (iv, i.v. (1 mg/kg)) was determined as 5440 ± 220 ng·h/mL; in data set [4] (po, i.g. (10 mg/kg)) it was 143 ± 13 ng·h/mL. Moreover, in data set [4] (iv, i.v. (1 mg/kg)), the clearance amounted to 3.06 ± 0.13 mL/min/kg. The Vd in data set [4] (iv, i.v. (1 mg/kg), read-out: Vdss) turned out to be 0.378 ± 0.022 L/kg. In data set [4] (po, i.g. (10 mg/kg)), this compound displayed a bioavailability of 0.263 ± 0.023%.
